Laboratory results: patent US20220162191A1, “SMALL MOLECULE MODULATORS OF IL-17” (LEO PHARMA A/S, priority 2019, published 2022)

Target: T1, human IL-17AA (Homo sapiens, UniProt Q16552)
T1 construct: host or cells: HEK (human embryonic kidney) cells
T1 sequence (Q16552 24-155) 1: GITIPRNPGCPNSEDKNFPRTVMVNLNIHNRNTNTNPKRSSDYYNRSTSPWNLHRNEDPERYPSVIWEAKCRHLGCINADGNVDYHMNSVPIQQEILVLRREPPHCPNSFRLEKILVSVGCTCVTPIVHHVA
T1 sequence (Q16552 24-155) 2: T1 sequence (Q16552 24-155) 1
Assay: IL-8 release assay in human epithelial keratinocytes adult (HEKa)
Assay type: cell-based
Details: 3 ng/ml human IL-17AA + 10 ng/ml human TNFalpha, 68-72 h, IL-8 by HTRF, read-out: Rel EC50 L-8 release assay
Procedure, shortened: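 Adult human keratinocytes in Epilife with HKGS minus hydrocortisone, treated with compound then stimulated with final 3 ng/ml HEK-derived human IL-17AA plus 10 ng/ml TNF-alpha for 68–72 h at 37 °C; TNF-alpha alone defines 100% inhibition. Secreted IL-8 by HTRF; relative IC50 and Emax from four-parameter fits.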

Compound	EC50 [nM]
Cc1n[nH]cc1-c1ccc(NC(=O)C(NC(=O)OC2CC2)C(c2ccccc2)c2cccc(-c3ccc(=O)n(C(C)C)c3)c2)cc1 (single isomer, unassigned; diastereomer 4) [Example 245, cyclopropyl N-[1-[[3-(1-isopropyl-6-oxo-3-pyridyl)phenyl]-phenyl-methyl]-2-[4-(3-methyl-1H-pyrazol-4-yl)anilino]-2-oxo-ethyl]carbamate (Diastereomer 4)]	< 100
CC(C)CC(=O)N[C@@H](Cc1cc(-c2ccc(=O)n(C(C)C)c2)ccc1Cl)C(=O)Nc1ccc(-c2nncn2C)cc1 [Example 115, N-[(1S)-1-[[2-chloro-5-(1-isopropyl-6-oxo-3-pyridyl)phenyl]methyl]-2-[4-(4-methyl-1,2,4-triazol-3-yl)anilino]-2-oxo-ethyl]-3-methyl-butanamide]	> 1000
CC(C)n1cc(-c2ccc(Cl)c(C[C@H](NC(=O)C3CC3(C)C)C(=O)Nc3ccc(-c4nncn4C)cc3)c2)ccc1=O (stereo partly drawn) [Example 154, N-[(1S)-1-[[2-chloro-5-(1-isopropyl-6-oxo-3-pyridyl)phenyl]methyl]-2-[4-(4-methyl-1,2,4-triazol-3-yl)anilino]-2-oxo-ethyl]-2,2-dimethyl-cyclopropanecarboxamide]	> 1000
CC(C)n1cc(-c2ccc(Cl)c(CC(NC(=O)c3ccnn3C)C(=O)Nc3ccc(-c4nncn4C4CC4)cc3)c2)ccc1=O (centres unmarked) [Example 72, N-[1-[[2-chloro-5-(1-isopropyl-6-oxo-3-pyridyl)phenyl]methyl]-2-[4-(4-cyclopropyl-1,2,4-triazol-3-yl)anilino]-2-oxo-ethyl]-2-methyl-pyrazole-3-carboxamide]	> 1000
CN1CCOC[C@H]1c1cccc(-c2ccc(Cl)c(C[C@H](NC(=O)c3ccnn3C)C(=O)Nc3ccc(-c4cncn4C)cc3)c2)c1 [Example 218, N-[(1S)-1-[[2-chloro-5-[3-[(3R)-4-methylmorpholin-3-yl]phenyl]phenyl]methyl]-2-[4-(3-methylimidazol-4-yl)anilino]-2-oxo-ethyl]-2-methyl-pyrazole-3-carboxamide]	100 to 1000
CCc1cc(-c2ccc(Cl)c(CC(NC(=O)c3ccnn3C)C(=O)Nc3ccc(-c4nncn4C)cc3)c2)ccc1C#N (centres unmarked) [Example 198, N-[1-[[2-chloro-5-(4-cyano-3-ethyl-phenyl)phenyl]methyl]-2-[4-(4-methyl-1,2,4-triazol-3-yl)anilino]-2-oxo-ethyl]-2-methyl-pyrazole-3-carboxamide]	> 1000
Cc1cnn(C)c1-c1ccc(NC(=O)[C@@H](NC(=O)OC(C)(C)C)[C@@H](c2cccc(-c3ccnc(N4C[C@@H]5C[C@H]4CO5)c3)c2)C2CC2)cc1 [Example 346, tert-butyl N-[(1S)-1-[(R)-cyclopropyl-[3-[2-[(1S,4S)-2-oxa-5-azabicyclo[2.2.1]heptan-5-yl]-4-pyridyl]phenyl]methyl]-2-[4-(2,4-dimethylpyrazol-3-yl)anilino]-2-oxo-ethyl]carbamate]	< 100
Cc1n[nH]c(C)c1-c1ccc(NC(=O)[C@@H](NC(=O)C2(F)CC2)[C@@H]2CCCc3ccc(-c4cnn(C(F)F)c4)cc32)cc1 [Example 393, N-[(1S)-1-[(1R)-7-[1-(difluoromethyl)pyrazol-4-yl]tetralin-1-yl]-2-[4-(3,5-dimethyl-1H-pyrazol-4-yl)anilino]-2-oxo-ethyl]-1-fluoro-cyclopropanecarboxamide]	100 to 1000
Cn1cncc1-c1ccc(NC(=O)[C@H](Cc2cc(-c3cccc([C@@H]4COCCN4)c3)ccc2Cl)NC(=O)c2ccnn2C)cc1 [Example 216, N-[(1S)-1-[[2-chloro-5-[3-[(3R)-morpholin-3-yl]phenyl]phenyl]methyl]-2-[4-(3-methylimidazol-4-yl)anilino]-2-oxo-ethyl]-2-methyl-pyrazole-3-carboxamide]	100 to 1000
Cc1n[nH]c(C)c1-c1ccc(NC(=O)[C@@H](NC(=O)c2ccnn2C)[C@@H]2CCc3ccc(-c4ccnc(C(C)C)c4)cc32)cc1 [Example 14, N-[(1S)-2-[4-(3,5-dimethyl-1H-pyrazol-4-yl)anilino]-1-[(1R)-6-(2-isopropyl-4-pyridyl)indan-1-yl]-2-oxo-ethyl]-2-methyl-pyrazole-3-carboxamide]	< 100
Cc1n[nH]c(C)c1-c1ccc(NC(=O)[C@@H](NC(=O)C2(F)CC2)[C@@H]2CCc3ccc(-c4ccnc(N5CCNCC5)c4)cc32)cc1 [Example 9, N-[(1S)-2-[4-(3,5-dimethyl-1H-pyrazol-4-yl)anilino]-2-oxo-1-[(1R)-6-(2-piperazin-1-yl-4-pyridyl)indan-1-yl]ethyl]-1-fluoro-cyclopropanecarboxamide]	< 100
Cc1nccn1-c1ccc(NC(=O)[C@@H](NC(=O)c2ccnn2C)[C@@H]2CCCc3ccc(-c4ccnc(N5C[C@H]6C[C@@H]5CO6)c4)cc32)cc1 [Example 403, 2-methyl-N-[(1S)-2-[4-(2-methylimidazol-1-yl)anilino]-1-[(1R)-7-[2-[(1R,4R)-2-oxa-5-azabicyclo[2.2.1]heptan-5-yl]-4-pyridyl]tetralin-1-yl]-2-oxo-ethyl]pyrazole-3-carboxamide]	100 to 1000
CC(C)OC(=O)N[C@@H](Cc1cc(-c2ccc(=O)n(C(C)C)c2)ccc1Cl)C(=O)Nc1ccc(-c2nncn2C)cc1 [Example 99, isopropyl N-[(1S)-1-[[2-chloro-5-(1-isopropyl-6-oxo-3-pyridyl)phenyl]methyl]-2-[4-(4-methyl-1,2,4-triazol-3-yl)anilino]-2-oxo-ethyl]carbamate]	> 1000
Cc1cnn(C)c1-c1ccc(NC(=O)[C@@H](NC(=O)C2(F)CC2)[C@@H]2CCc3ccc(-c4cncc(N5C[C@@H]6C[C@H]5CO6)n4)cc32)cc1 [Example 379, N-[(1S)-2-[4-(2,4-dimethylpyrazol-3-yl)anilino]-1-[(1R)-6-[6-[(1S,4S)-2-oxa-5-azabicyclo[2.2.1]heptan-5-yl]pyrazin-2-yl]indan-1-yl]-2-oxo-ethyl]-1-fluoro-cyclopropanecarboxamide]	< 100
CC(C)n1cc(-c2cccc(C(c3ccccc3)C(NC(=O)OC3CC3)C(=O)Nc3ccc(-c4cncn4C)cc3)c2)ccc1=O (single isomer, unassigned) [Example 231, Cyclopropyl N-[1-[[3-(1-isopropyl-6-oxo-3-pyridyl)phenyl]-phenyl-methyl]-2-[4-(3-methylimidazol-4-yl)anilino]-2-oxo-ethyl]carbamate]	100 to 1000
Cc1n[nH]c(C)c1-c1ccc(NC(=O)[C@H](Cc2cc(-c3cnn(C(C)(C)C)c3)ccc2Cl)NC(=O)c2ccnn2C)cc1 [Example 200, N-[(1S)-1-[[5-(1-tert-butylpyrazol-4-yl)-2-chloro-phenyl]methyl]-2-[4-(3,5-dimethyl-1H-pyrazol-4-yl)anilino]-2-oxo-ethyl]-2-methyl-pyrazole-3-carboxamide]	< 100
Cn1cnnc1-c1ccc(NC(=O)C(Cc2cc(-c3ccc(O)c(C4=NCCCO4)c3)ccc2Cl)NC(=O)c2ccnn2C)cc1 (centres unmarked) [Example 178, N-[1-[[2-chloro-5-[3-(5,6-dihydro-4H-1,3-oxazin-2-yl)-4-hydroxy-phenyl]phenyl]methyl]-2-[4-(4-methyl-1,2,4-triazol-3-yl)anilino]-2-oxo-ethyl]-2-methyl-pyrazole-3-carboxamide]	100 to 1000
Cn1cncc1-c1ccc(NC(=O)C(Cc2cc(-c3cccc(C(C)(C)N)c3)ccc2Cl)NC(=O)c2ccnn2C)cc1 (centres unmarked) [Example 176, N-[1-[[5-[3-(1-amino-1-methyl-ethyl)phenyl]-2-chloro-phenyl]methyl]-2-[4-(3-methylimidazol-4-yl)anilino]-2-oxo-ethyl]-2-methyl-pyrazole-3-carboxamide]	< 100
Cc1cnn(C)c1-c1ccc(NC(=O)[C@H](Cc2cc(-c3ccc(=O)n(C(C)C)c3)ccc2Cl)NC(=O)CC2CC2)cc1 [Example 336, (2S)-3-[2-chloro-5-(1-isopropyl-6-oxo-3-pyridyl)phenyl]-2-[(2-cyclopropylacetyl)amino]-N-[4-(2,4-dimethylpyrazol-3-yl)phenyl]propanamide]	100 to 1000
Cc1cnn(C)c1-c1ccc(NC(=O)[C@H](Cc2cc(-c3ccc(=O)n(C(C)C)c3)ccc2Cl)NC(=O)C2(F)CC2)cc1 [Example 119, N-[(1S)-1-[[2-chloro-5-(1-isopropyl-6-oxo-3-pyridyl)phenyl]methyl]-2-[4-(2,4-dimethylpyrazol-3-yl)anilino]-2-oxo-ethyl]-1-fluoro-cyclopropanecarboxamide]	100 to 1000
Cc1ncn(C)c1-c1ccc(NC(=O)[C@H](Cc2cc(-c3cccc(C(C)(C)O)c3)ccc2Cl)NC(=O)c2ccnn2C)cc1 [Example 181, N-[(1S)-[[2-chloro-5-[3-(1-hydroxy-1-methyl-ethyl)phenyl]phenyl]methyl]-2-[4-(3,5-dimethylimidazol-4-yl)anilino]-2-oxo-ethyl]-2-methyl-pyrazole-3-carboxamide]	< 100
CC(C)n1cc(-c2ccc(Cl)c(CC(NC(=O)C(F)(F)c3ccccc3)C(=O)Nc3ccc(-c4nncn4C)cc3)c2)ccc1=O (centres unmarked) [Example 97, 3-[2-chloro-5-(1-isopropyl-6-oxo-3-pyridyl)phenyl]-2-[(2,2-difluoro-2-phenyl-acetyl)amino]-N-[4-(4-methyl-1,2,4-triazol-3-yl)phenyl]propanamide]	> 1000
Cc1nocc1C(=O)N[C@@H](Cc1cc(-c2ccnc(C(=O)C3CC3)c2)ccc1Cl)C(=O)Nc1ccc(-c2nncn2C)cc1 [Example 85, N-[(1S)-1-[[2-chloro-5-[2-(cyclopropanecarbonyl)-4-pyridyl]phenyl]methyl]-2-[4-(4-methyl-1,2,4-triazol-3-yl)anilino]-2-oxo-ethyl]-3-methyl-isoxazole-4-carboxamide]	> 1000
